In ChEMBL document CHEMBL1909046, “DrugMatrix in vitro pharmacology data”:

Assays:
[1] = DRUGMATRIX: Calcium Channel Type L, Benzothiazepine radioligand binding (ligand: [3H] Diltiazem); assay type: cell membranes, Rattus norvegicus, Wistar, Brain, Membrane; settings: Not Active = under 50% inhibition at 10 µM
[2] = biological target: 5-hydroxytryptamine receptor 6 (Homo sapiens, UniProt P50406); assay type: cell membranes, HeLa, Membrane; settings: hela; note: in other assays of this panel Not Active means under 50% inhibition at 10 µM
5-hydroxytryptamine receptor 6, sequence (P50406 whole entry): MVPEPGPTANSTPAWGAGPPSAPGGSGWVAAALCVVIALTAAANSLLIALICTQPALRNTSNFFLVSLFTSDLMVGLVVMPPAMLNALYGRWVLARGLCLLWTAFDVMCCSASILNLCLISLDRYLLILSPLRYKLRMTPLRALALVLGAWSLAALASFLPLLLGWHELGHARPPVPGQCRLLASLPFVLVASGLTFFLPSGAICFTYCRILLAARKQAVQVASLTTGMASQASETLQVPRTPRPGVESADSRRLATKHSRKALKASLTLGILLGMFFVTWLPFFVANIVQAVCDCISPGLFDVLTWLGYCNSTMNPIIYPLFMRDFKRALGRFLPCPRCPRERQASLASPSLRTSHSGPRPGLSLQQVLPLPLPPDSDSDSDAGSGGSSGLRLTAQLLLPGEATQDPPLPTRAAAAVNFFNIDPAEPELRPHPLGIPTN

[3] = biological target: Sigma non-opioid intracellular receptor 1 (Homo sapiens, UniProt Q99720); assay: DRUGMATRIX: Sigma1 radioligand binding (ligand: [3H] Haloperidol); assay type: cell membranes, Jurkat, Membrane; settings: Not Active = under 50% inhibition at 10 µM
Sigma non-opioid intracellular receptor 1, sequence (Q99720 whole entry): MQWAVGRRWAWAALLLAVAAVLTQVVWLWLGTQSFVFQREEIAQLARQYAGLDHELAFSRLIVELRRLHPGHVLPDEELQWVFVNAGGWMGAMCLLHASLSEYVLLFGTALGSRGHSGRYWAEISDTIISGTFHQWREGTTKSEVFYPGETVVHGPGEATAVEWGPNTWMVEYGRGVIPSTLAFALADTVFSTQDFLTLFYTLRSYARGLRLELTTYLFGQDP

[4] = DRUGMATRIX: Sigma2 radioligand binding (ligand: [3H] Ifenprodil); assay type: cell membranes, Rattus norvegicus, Wistar, Brain, Membrane; settings: Not Active = under 50% inhibition at 10 µM
Substance-K receptor = biological target: T1, Substance-K receptor (Homo sapiens, UniProt P21452); assay type: cell membranes, CHO, Membrane; settings: cho; note: in other assays of this panel Not Active means under 50% inhibition at 10 µM
T1 sequence (P21452 whole entry): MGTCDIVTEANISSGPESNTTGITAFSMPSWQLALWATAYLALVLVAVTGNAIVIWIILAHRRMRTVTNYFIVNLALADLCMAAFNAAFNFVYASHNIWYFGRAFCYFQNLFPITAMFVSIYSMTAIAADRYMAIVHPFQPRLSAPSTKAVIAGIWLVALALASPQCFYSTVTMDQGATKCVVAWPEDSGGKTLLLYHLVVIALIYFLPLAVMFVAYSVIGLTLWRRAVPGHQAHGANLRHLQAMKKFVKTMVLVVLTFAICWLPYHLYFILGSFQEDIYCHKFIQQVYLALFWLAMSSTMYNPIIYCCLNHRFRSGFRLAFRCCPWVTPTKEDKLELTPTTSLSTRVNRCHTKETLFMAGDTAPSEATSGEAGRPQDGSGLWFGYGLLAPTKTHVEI

[5] = DRUGMATRIX: Calcium Channel Type L, Phenylalkylamine radioligand binding (ligand: [3H] (-)-Desmethoxyverapamil (D-888)); assay type: cell membranes, Rattus norvegicus, Wistar, Brain, Membrane; settings: Not Active = under 50% inhibition at 10 µM
[6] = DRUGMATRIX: Glutamate, NMDA, Phencyclidine radioligand binding (ligand: [3H] TCP); assay type: cell membranes, Rattus norvegicus, Wistar, Cerebral cortex, Membrane; settings: Not Active = under 50% inhibition at 10 µM
Glycine receptor = Glycine receptor (Rattus norvegicus, UniProt P22771+P24524+P07727+P20781); assay type: cell membranes, Wistar, Spinal cord, Membrane; note: in other assays of this panel Not Active means under 50% inhibition at 10 µM
[7] = biological target: T2, Polyunsaturated fatty acid lipoxygenase ALOX15 (Oryctolagus cuniculus, UniProt P12530); assay: biochemical; assay type: tissue-based, Reticulocytes; settings: reticulocytes;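 note: inhibition of 15-lipoxygenase enzyme activity measured with linoleic acid as the substrate; in other assays of this panel Not Active means under 50% inhibition at 10 µM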
T2 sequence (P12530 whole entry): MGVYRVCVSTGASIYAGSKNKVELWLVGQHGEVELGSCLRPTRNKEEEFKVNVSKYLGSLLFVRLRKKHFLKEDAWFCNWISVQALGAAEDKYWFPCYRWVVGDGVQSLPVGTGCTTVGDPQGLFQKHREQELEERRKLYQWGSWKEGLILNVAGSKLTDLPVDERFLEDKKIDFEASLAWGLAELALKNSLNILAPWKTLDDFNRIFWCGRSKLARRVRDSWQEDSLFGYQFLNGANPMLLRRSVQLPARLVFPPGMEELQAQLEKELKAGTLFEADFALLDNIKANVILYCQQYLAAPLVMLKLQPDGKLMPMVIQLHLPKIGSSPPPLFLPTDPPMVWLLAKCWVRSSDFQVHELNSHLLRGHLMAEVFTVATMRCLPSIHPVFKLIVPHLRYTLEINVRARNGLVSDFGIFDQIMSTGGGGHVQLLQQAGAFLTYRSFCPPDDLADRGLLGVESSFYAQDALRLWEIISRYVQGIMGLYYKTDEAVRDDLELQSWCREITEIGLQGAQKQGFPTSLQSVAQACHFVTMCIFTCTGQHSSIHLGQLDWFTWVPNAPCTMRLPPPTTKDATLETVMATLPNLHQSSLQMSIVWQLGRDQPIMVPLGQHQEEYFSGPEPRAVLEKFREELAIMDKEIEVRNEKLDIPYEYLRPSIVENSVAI

[8] = DRUGMATRIX: Phosphodiesterase PDE3 enzyme inhibition (substrate: [3H]cAMP + cAMP); assay type: tissue-based, Homo sapiens; settings: platelet; Not Active = under 50% inhibition at 10 µM
[9] = DRUGMATRIX: Phosphodiesterase PDE4 enzyme inhibition (substrate: [3H]cAMP + cAMP); settings: u-937; Not Active = under 50% inhibition at 10 µM
[10] = biological target: Tyrosine-protein kinase Lck (Homo sapiens, UniProt P06239); assay: DRUGMATRIX: Protein Tyrosine Kinase, LCK enzyme inhibition (substrate: Poly(Glu:Tyr)); assay type: cell-based, Insect cells; settings: insect cells; Not Active = under 50% inhibition at 10 µM
Tyrosine-protein kinase Lck, sequence (P06239 whole entry): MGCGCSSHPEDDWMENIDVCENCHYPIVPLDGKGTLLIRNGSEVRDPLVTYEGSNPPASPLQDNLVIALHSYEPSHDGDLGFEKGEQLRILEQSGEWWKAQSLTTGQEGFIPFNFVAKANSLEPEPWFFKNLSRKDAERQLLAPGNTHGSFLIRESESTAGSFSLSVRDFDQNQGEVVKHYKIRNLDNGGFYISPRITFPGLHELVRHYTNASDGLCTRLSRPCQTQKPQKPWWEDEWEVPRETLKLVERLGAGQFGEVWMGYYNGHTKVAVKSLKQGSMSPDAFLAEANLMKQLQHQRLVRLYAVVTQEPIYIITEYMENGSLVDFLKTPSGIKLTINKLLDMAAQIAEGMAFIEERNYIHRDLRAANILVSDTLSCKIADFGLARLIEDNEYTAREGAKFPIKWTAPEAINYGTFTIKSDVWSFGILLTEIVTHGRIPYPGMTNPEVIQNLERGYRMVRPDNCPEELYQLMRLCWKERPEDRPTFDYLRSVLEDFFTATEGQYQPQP

[11] = DRUGMATRIX: Purinergic P2X radioligand binding (ligand: [3H] alpha, beta-Methylene-ATP); assay type: cell membranes, Oryctolagus cuniculus, New Zealand albino, Urinary bladder, Membrane; settings: Not Active = under 50% inhibition at 10 µM
[12] = biological target: T3, 5-hydroxytryptamine receptor 1A (Rattus norvegicus, UniProt P19327); assay type: cell membranes, CHO-K1, Membrane; settings: cho-k1; note: in other assays of this panel Not Active means under 50% inhibition at 10 µM
T3 sequence (P19327 whole entry): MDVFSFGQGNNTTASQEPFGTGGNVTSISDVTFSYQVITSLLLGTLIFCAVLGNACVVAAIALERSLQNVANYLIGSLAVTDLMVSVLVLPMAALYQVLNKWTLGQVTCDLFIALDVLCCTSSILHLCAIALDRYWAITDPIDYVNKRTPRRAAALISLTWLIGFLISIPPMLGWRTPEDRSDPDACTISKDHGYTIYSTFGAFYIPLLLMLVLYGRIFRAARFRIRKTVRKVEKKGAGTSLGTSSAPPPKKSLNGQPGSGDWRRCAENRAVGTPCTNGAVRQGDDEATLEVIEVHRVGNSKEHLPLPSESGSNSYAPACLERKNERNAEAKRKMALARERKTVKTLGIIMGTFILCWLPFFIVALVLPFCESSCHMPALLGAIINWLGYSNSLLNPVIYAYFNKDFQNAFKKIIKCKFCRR

CC[C@H]1OC(=O)[C@H](C)[C@@H](O[C@H]2C[C@@](C)(OC)[C@@H](O)[C@H](C)O2)[C@H](C)[C@@H](O[C@@H]2O[C@H](C)C[C@H](N(C)C)[C@H]2O)[C@](C)(O)C[C@@H](C)/C(=N\OCOCCOC)[C@H](C)[C@@H](O)[C@]1(C)O [ROXITHROMYCIN]
Not Active: IC50 [1] | Ki [1] | IC50 [2] | IC50 ([3]; jurkat) | IC50 [4] | Ki [4] | IC50 (Substance-K receptor) | IC50 [5] | Ki [5] | IC50 [6] | Ki [6] | IC50 (Glycine receptor) | IC50 [7] | IC50 [8] | Ki [8] | IC50 [9] | Ki [9] | IC50 [10] | IC50 [11] | Ki [11] | IC50 [12]

CCOC(=O)[C@H](CCc1ccccc1)N[C@@H](C)C(=O)N1[C@H](C(=O)O)C[C@@H]2CCC[C@@H]21
Not Active: IC50 [1] | Ki [1] | IC50 [2] | IC50 ([3]; jurkat) | IC50 [4] | Ki [4] | IC50 (Substance-K receptor) | IC50 [5] | Ki [5] | IC50 [6] | Ki [6] | IC50 (Glycine receptor) | IC50 [7] | IC50 [8] | Ki [8] | IC50 [9] | Ki [9] | IC50 [10] | IC50 [11] | Ki [11] | IC50 [12]

NNC(=O)c1ccncc1 [ISONIAZID]
Not Active: IC50 [1] | Ki [1] | IC50 [2] | IC50 ([3]; jurkat) | IC50 [4] | Ki [4] | IC50 (Substance-K receptor) | IC50 [5] | Ki [5] | IC50 [6] | Ki [6] | IC50 (Glycine receptor) | IC50 [7] | IC50 [8] | Ki [8] | IC50 [9] | Ki [9] | IC50 [10] | IC50 [11] | Ki [11] | IC50 [12]

Nc1nnc(-c2cccc(Cl)c2Cl)c(N)n1 [LAMOTRIGINE]
Not Active: IC50 [1] | Ki [1] | IC50 [2] | IC50 ([3]; jurkat) | IC50 [4] | Ki [4] | IC50 (Substance-K receptor) | IC50 [5] | Ki [5] | IC50 [6] | Ki [6] | IC50 (Glycine receptor) | IC50 [7] | IC50 [8] | Ki [8] | IC50 [9] | Ki [9] | IC50 [10] | IC50 [11] | Ki [11] | IC50 [12]

C[C@]12Cc3c[nH]nc3C[C@@H]1CC[C@@H]1[C@@H]2CC[C@@]2(C)[C@H]1CC[C@]2(C)O [STANOZOLOL]
Not Active: IC50 [1] | Ki [1] | IC50 [2] | IC50 ([3]; jurkat) | IC50 [4] | Ki [4] | IC50 (Substance-K receptor) | IC50 [5] | Ki [5] | IC50 [6] | Ki [6] | IC50 (Glycine receptor) | IC50 [7] | IC50 [8] | Ki [8] | IC50 [9] | Ki [9] | IC50 [10] | IC50 [11] | Ki [11] | IC50 [12]

CC1=C(/C=C/C(C)=C/C=C/C(C)=C\C(=O)O)C(C)(C)CCC1 [ISOTRETINOIN]
Not Active: IC50 [1] | Ki [1] | IC50 [2] | IC50 ([3]; jurkat) | IC50 [4] | Ki [4] | IC50 (Substance-K receptor) | IC50 [5] | Ki [5] | IC50 [6] | Ki [6] | IC50 (Glycine receptor) | IC50 [7] | IC50 [8] | Ki [8] | IC50 [9] | Ki [9] | IC50 [10] | IC50 [11] | Ki [11] | IC50 [12]

NC(CO)(CO)CO [TROMETHAMINE]
Not Active: IC50 [1] | Ki [1] | IC50 [2] | IC50 ([3]; jurkat) | IC50 [4] | Ki [4] | IC50 (Substance-K receptor) | IC50 [5] | Ki [5] | IC50 [6] | Ki [6] | IC50 (Glycine receptor) | IC50 [7] | IC50 [8] | Ki [8] | IC50 [9] | Ki [9] | IC50 [10] | IC50 [11] | Ki [11] | IC50 [12]

Cc1ccc(C(=O)C(C)CN2CCCCC2)cc1 (centres undefined) [TOLPERISONE]
Not Active: IC50 [1] | Ki [1] | IC50 [2] | IC50 (Substance-K receptor) | IC50 [5] | Ki [5] | IC50 [6] | Ki [6] | IC50 (Glycine receptor) | IC50 [7] | IC50 [8] | Ki [8] | IC50 [9] | Ki [9] | IC50 [10] | IC50 [11] | Ki [11] | IC50 [12]
2070 nM: Ki ([4]; read-out: Ki)
13 nM: IC50 ([3]; read-out: IC50)
5.59 nM: Ki ([3]; read-out: Ki)
3360 nM: IC50 ([4]; read-out: IC50)
